Molecular target: human MGL from HeLa cells (Homo sapiens (Human), UniProt Q99685)
Experiment: MGL in vitro activity assay ([glycerol-1,3-3H]-oleoyl glycerol hydrolysis, activated carbon filtration)
Format: biochemical
Details: 300 nM [Glycerol-1,3-3H]-oleoyl glycerol, one hour
Summary of the method: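 Endogenous human MGL in HeLa cells/homogenates incubated 1 h with test compounds and 300 nM [glycerol-1,3-3H]-oleoyl glycerol. Released 3H-glycerol passing an activated carbon filter counted as activity; screening at 10 μM compound, top IC50 concentration set empirically.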

human MGL from HeLa cells, sequence (Q99685 whole entry): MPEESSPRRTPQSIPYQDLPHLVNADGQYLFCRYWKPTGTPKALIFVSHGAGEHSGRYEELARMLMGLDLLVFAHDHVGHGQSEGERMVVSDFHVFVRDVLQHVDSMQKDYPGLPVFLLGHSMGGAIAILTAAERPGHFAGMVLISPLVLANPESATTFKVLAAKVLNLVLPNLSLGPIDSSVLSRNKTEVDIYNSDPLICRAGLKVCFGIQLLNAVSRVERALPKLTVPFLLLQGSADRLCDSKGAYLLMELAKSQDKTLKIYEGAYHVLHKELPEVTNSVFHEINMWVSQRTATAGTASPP

Cc1nc([C@H](C)C2CC3(C2)CN(C(=O)[C@H]2C[C@@](C)(O)C2)C3)ccc1C(F)(F)F (stereo in doubt) [Example 312, ((1s,3*S)-3-Hydroxy-3-methylcyclobutyl)(6-((*R)-1-(6-methyl-5-(trifluoromethyl)pyridin-2-yl)ethyl)-2-azaspiro[3.3]heptan-2-yl)methanone]
IC50: 0.0054 µM

Cc1nc([C@@H](C)C2CC3(C2)CN(C(=O)[C@H]2C[C@@](C)(O)C2)C3)ccc1C(F)(F)F (stereo in doubt) [Example 313, ((1s,3*R)-3-Hydroxy-3-methylcyclobutyl)(6-((*S)-1-(6-methyl-5-(trifluoromethyl)pyridin-2-yl)ethyl)-2-azaspiro[3.3]heptan-2-yl)methanone]
IC50: 0.052 µM

C[C@@H](c1ccc2cnn(C)c2c1)C1CC2(C1)CN(C(=O)[C@H]1C[C@@](C)(O)C1)C2 (stereo in doubt) [Example 314, ((1s,3*S)-3-Hydroxy-3-methylcyclobutyl)(6-((*R)-1-(1-methyl-1H-indazol-6-yl)ethyl)-2-azaspiro[3.3]heptan-2-yl)methanone]
IC50: 0.13 µM

C[C@H](c1ccc2cnn(C)c2c1)C1CC2(C1)CN(C(=O)[C@H]1C[C@@](C)(O)C1)C2 (stereo in doubt) [Example 315, ((1s,3*R)-3-Hydroxy-3-methylcyclobutyl)(6-((*S)-1-(1-methyl-1H-indazol-6-yl)ethyl)-2-azaspiro[3.3]heptan-2-yl)methanone]
IC50: 0.045 µM

Cc1ccc([C@H]2CCC3(C2)CN(C(=O)[C@H]2C[C@@](C)(O)C2)C3)c(C)c1 (stereo in doubt) [Example 321, ((*S)-6-(2,4-Dimethylphenyl)-2-azaspiro[3.4]octan-2-yl)((1s,3*R)-3-hydroxy-3-methylcyclobutyl)methanone]
IC50: 0.036 µM

Cc1ccc([C@@H]2CCC3(C2)CN(C(=O)[C@H]2C[C@@](C)(O)C2)C3)c(C)c1 (stereo in doubt) [Example 322, ((*R)-6-(2,4-Dimethylphenyl)-2-azaspiro[3.4]octan-2-yl)((1s,3*S)-3-hydroxy-3-methylcyclobutyl)methanone]
IC50: 0.064 µM

Cc1cc(C)cc([C@H]2CC[C@]3(CC2)CN(C(=O)[C@H]2C[C@@](C)(O)C2)[C@H]3C)c1 (stereo in doubt) [Example 348, ((1*S,4r,7*S)-7-(3,5-Dimethylphenyl)-1-methyl-2-azaspiro[3.5]nonan-2-yl)((1s,3*R)-3-hydroxy-3-methylcyclobutyl)methanone]
IC50: 0.326 µM

Cc1cc(C)cc([C@H]2CC[C@]3(CC2)CN(C(=O)[C@H]2C[C@@](C)(O)C2)[C@@H]3C)c1 (stereo in doubt) [Example 349, ((1*R,4r,7*R)-7-(3,5-Dimethylphenyl)-1-methyl-2-azaspiro[3.5]nonan-2-yl)((1s,3*S)-3-hydroxy-3-methylcyclobutyl)methanone]
IC50: 0.523 µM

Cc1cc(C)cc([C@H]2CC[C@@]3(CC2)CN(C(=O)[C@H]2C[C@@](C)(O)C2)[C@H]3C)c1 (stereo in doubt) [Example 350, ((1*S,4s,7*R)-7-(3,5-Dimethylphenyl)-1-methyl-2-azaspiro[3.5]nonan-2-yl)((1s,3*R)-3-hydroxy-3-methylcyclobutyl)methanone]
IC50: 0.034 µM

Cc1cc(C)cc([C@H]2CC[C@@]3(CC2)CN(C(=O)[C@H]2C[C@@](C)(O)C2)[C@@H]3C)c1 (stereo in doubt) [Example 351, ((1*R,4s,7*S)-7-(3,5-Dimethylphenyl)-1-methyl-2-azaspiro[3.5]nonan-2-yl)((1s,3*S)-3-hydroxy-3-methylcyclobutyl)methanone]
IC50: 0.077 µM

Cc1nc(O[C@H]2CCC3(C[C@@H]2C)CN(C(=O)[C@H]2C[C@@](C)(O)C2)C3)ccc1C(F)(F)F (stereo in doubt) [Example 444, ((1s,3*R)-3-Hydroxy-3-methylcyclobutyl)((6*S,7*S)-6-methyl-7-((6-methyl-5-(trifluoromethyl)pyridin-2-yl)oxy)-2-azaspiro[3.5]nonan-2-yl)methanone]
IC50: 0.0048 µM

Cc1nc(O[C@@H]2CCC3(C[C@H]2C)CN(C(=O)[C@H]2C[C@@](C)(O)C2)C3)ccc1C(F)(F)F (stereo in doubt) [Example 445, ((1s,3*S)-3-Hydroxy-3-methylcyclobutyl)((6*R,7*R)-6-methyl-7-((6-methyl-5-(trifluoromethyl)pyridin-2-yl)oxy)-2-azaspiro[3.5]nonan-2-yl)methanone]
IC50: 0.033 µM

CC(C)(C)c1cccc(C2CC3(C2)CN(C(=O)[C@H]2C[C@@](C)(O)C2)C3)c1 [Example 1, (6-(3-(tert-Butyl)phenyl)-2-azaspiro[3.3]heptan-2-yl)((1s,3s)-3-hydroxy-3-methylcyclobutyl)methanone]
IC50: 0.0099 µM

CC(C)(C)c1ccc(C2CC3(C2)CN(C(=O)[C@H]2C[C@@](C)(O)C2)C3)cc1 [Example 2, (6-(4-(tert-Butyl)phenyl)-2-azaspiro[3.3]heptan-2-yl)((1s,3s)-3-hydroxy-3-methylcyclobutyl)methanone]
IC50: 0.149 µM

CC(C)c1cccc(C2CC3(C2)CN(C(=O)[C@H]2C[C@@](C)(O)C2)C3)c1 [Example 3, ((1s,3s)-3-Hydroxy-3-methylcyclobutyl)(6-(3-isopropylphenyl)-2-azaspiro[3.3]heptan-2-yl)methanone]
IC50: 0.024 µM

CC(C)c1ccc(C2CC3(C2)CN(C(=O)[C@H]2C[C@@](C)(O)C2)C3)cc1 [Example 4, ((1s,3s)-3-Hydroxy-3-methylcyclobutyl)(6-(4-isopropylphenyl)-2-azaspiro[3.3]heptan-2-yl)methanone]
IC50: 0.128 µM

C[C@]1(O)C[C@@H](C(=O)N2CC3(CC(c4ccc(C5CC5)cc4)C3)C2)C1 [Example 5, (6-(4-Cyclopropylphenyl)-2-azaspiro[3.3]heptan-2-yl)((1s,3s)-3-hydroxy-3-methylcyclobutyl)methanone]
IC50: 0.292 µM

Cc1ccc(C2CC3(C2)CN(C(=O)[C@H]2C[C@@](C)(O)C2)C3)cc1C(F)(F)F [Example 6, ((1s,3s)-3-Hydroxy-3-methylcyclobutyl)(6-(4-methyl-3-(trifluoromethyl)phenyl)-2-azaspiro[3.3]heptan-2-yl)methanone]
IC50: 0.031 µM

C[C@]1(O)C[C@@H](C(=O)N2CC3(CC(c4cccc(C5CC5)c4)C3)C2)C1 [Example 20, (6-(3-Cyclopropylphenyl)-2-azaspiro[3.3]heptan-2-yl)((1s,3s)-3-hydroxy-3-methylcyclobutyl)methanone]
IC50: 0.037 µM

Cc1c(C2CC3(C2)CN(C(=O)[C@H]2C[C@@](C)(O)C2)C3)cccc1C(F)(F)F [Example 21, ((1s,3s)-3-Hydroxy-3-methylcyclobutyl)(6-(2-methyl-3-(trifluoromethyl)phenyl)-2-azaspiro[3.3]heptan-2-yl)methanone]
IC50: 0.112 µM

Cc1ccc(C2CCC3(CC2)CN(C(=O)[C@H]2C[C@@](C)(O)C2)C3)cc1Cl [Example 22, (7-(3-Chloro-4-methylphenyl)-2-azaspiro[3.5]nonan-2-yl)((1s,3s)-3-hydroxy-3-methylcyclobutyl)methanone]
IC50: 0.012 µM

Cc1ccc(C2CC3(C2)CN(C(=O)[C@H]2C[C@@](C)(O)C2)C3)cc1OC(F)(F)F [Example 23, ((1s,3s)-3-Hydroxy-3-methylcyclobutyl)(6-(4-methyl-3-(trifluoromethoxy)phenyl)-2-azaspiro[3.3]heptan-2-yl)methanone]
IC50: 0.045 µM

Cc1ccc(C2CC3(C2)CN(C(=O)[C@H]2C[C@@](C)(O)C2)C3)cc1C1CC1 [Example 27, (6-(3-Cyclopropyl-4-methylphenyl)-2-azaspiro[3.3]heptan-2-yl)((1s,3s)-3-hydroxy-3-methylcyclobutyl)methanone]
IC50: 0.047 µM

Cc1cc(C2CC2)ccc1C1CC2(C1)CN(C(=O)[C@H]1C[C@@](C)(O)C1)C2 [Example 28, (6-(4-Cyclopropyl-2-methylphenyl)-2-azaspiro[3.3]heptan-2-yl)((1s,3s)-3-hydroxy-3-methylcyclobutyl)methanone]
IC50: 0.125 µM

C[C@]1(O)C[C@@H](C(=O)N2CC3(CC(c4ccc5ccncc5c4)C3)C2)C1 [Example 30, ((1s,3s)-3-Hydroxy-3-methylcyclobutyl)(6-(isoquinolin-7-yl)-2-azaspiro[3.3]heptan-2-yl)methanone]
IC50: 1.18 µM

C[C@]1(O)C[C@@H](C(=O)N2CC3(CC(c4ccc5cnccc5c4)C3)C2)C1 [Example 31, ((1s,3s)-3-Hydroxy-3-methylcyclobutyl)(6-(isoquinolin-6-yl)-2-azaspiro[3.3]heptan-2-yl)methanone]
IC50: 1.6 µM

C[C@]1(O)C[C@@H](C(=O)N2CC3(CC(c4cccc(N5CCCC5)c4)C3)C2)C1 [Example 32, ((1s,3s)-3-Hydroxy-3-methylcyclobutyl)(6-(3-(pyrrolidin-1-yl)phenyl)-2-azaspiro[3.3]heptan-2-yl)methanone]
IC50: 0.178 µM

Cc1cc(C2CC3(C2)CN(C(=O)[C@H]2C[C@@](C)(O)C2)C3)ccc1C(F)(F)F [Example 33, ((1s,3s)-3-Hydroxy-3-methylcyclobutyl)(6-(3-methyl-4-(trifluoromethyl)phenyl)-2-azaspiro[3.3]heptan-2-yl)methanone]
IC50: 0.246 µM

CC(C)(C)c1cccc(C2CC3(C2)CN(C(=O)[C@H]2C[C@@](C)(O)C2)C3)n1 [Example 34, (6-(6-(tert-Butyl)pyridin-2-yl)-2-azaspiro[3.3]heptan-2-yl)((1s,3s)-3-hydroxy-3-methylcyclobutyl)methanone]
IC50: 0.025 µM

CC(C)c1cccc(C2CC3(CCN(C(=O)[C@H]4C[C@@](C)(O)C4)C3)C2)c1 (some centres unmarked) [Example 36, ((1s,3s)-3-Hydroxy-3-methylcyclobutyl)(2-(3-isopropylphenyl)-6-azaspiro[3.4]octan-6-yl)methanone]
IC50: 0.153 µM

C[C@]1(O)C[C@@H](C(=O)N2CC3(CCC(c4ccccc4)CC3)C2)C1 [Example 37, ((1s,3s)-3-Hydroxy-3-methylcyclobutyl)(7-phenyl-2-azaspiro[3.5]nonan-2-yl)methanone]
IC50: 0.058 µM

C[C@]1(O)C[C@@H](C(=O)N2CC3(CC[C@H](c4ccc(C5CC5)cc4)C3)C2)C1 [Example 50, ((S)-6-(4-Cyclopropylphenyl)-2-azaspiro[3.4]octan-2-yl)((1s,3R)-3-hydroxy-3-methylcyclobutyl)methanone]
IC50: 0.0097 µM

— patent US11802111B2, “Cyclobutyl amide monoacylglycerol lipase modulators” (Janssen Pharmaceutica NV, priority 2020, dated 2023)
